{"source": "patent EP0137692A2", "about": "“New antibiotic, neocopiamycin A and the production thereof” (Arai, Tadashi, Prof., priority 1983, dated 1985)", "key": {"[1]": {"system": "Trichomonas vaginalis", "assay": "Growth inhibition in thioglycolate medium", "assay_type": "cell-based", "design": "unit not given here", "conditions": "thioglycolate medium with 0.5% dextrin and 15% bovine serum"}, "[2]": {"system": "yeasts and fungi", "assay": "MIC by serial two-fold agar dilution method (Sabouraud dextrose agar)", "assay_type": "cell-based", "description": "(§1) Neocopiamycin A has the following physico-chemical properties. • (1) Color and Appearance: neutral, colorless, hygroscopic powder. • (2) Melting point: 134 - 136°C. […] Neocopiamycin A gives negative reactions to biuret, ninhydrin, Molisch, Fehling, ferric chloride, Liebermann-Burchard, 2,4-dinitrophenylhydrazine reagents, but possitive reactions to Dragendorff, platinic iodide and Sakaguchi reagents. It also gives pinkish coloration with conc. sulfuric acid, which subsequently turned brown with time. • (8) Ultra violet absorption spectrum: As shown in Fig. 1 of the accompanying drawings. λ^MeOHmax 205 nm (log ε 4.2) • (9) Infrared absorption spectrum: As-shown in Fig. 2 of the accompanying drawing. IR (KBr)(cm^-1) : 3380, 2975, 2925, 1715, 1655, 1595, 1455, 1375, 1240, 1140, 1070, 975, 845. • (10) NMR spectrum: As shown in Fig. 3 of the accompanying drawing. • (11) Rf values of TLC: • A purified sample of neocopiamycin A gives only one spot when chromatographed on thin layer chromatography TLC (Silica gel 60, plate F254) in different solvent systems and bioautographed against Candida albicans or absorption of ultraviolet. […] [formula] • (12) Chemical structure: • According to spectral data and physicochemical characteristics, the sturcture of neocopiamycin A can be presumed to have the following formula:- [drawing 3] • Neocopiamycin A has the following biological properties. • (13) Antimicrobial Activity • The minimum inhibitory concentration (MIC) of neocopiamycin A against bacteria, yeast and fungi were determined by a serial two-fold agar dilution method. […] The MICs were determined after incubation for 24 hours or 4 days at 37^*C for bacteria, and after incubation 24 hours to 7 days at 37°C for yeasts and fungi, depending on the test strain. • Antimicrobial spectrum of neocopiamycin A is given in Tables 2, 3 and 4 below. […] Antifungal spectra of copiamycin were similarly determined for the comparison purpose. […] [formula] • (14) Acute Toxicity • Acute toxicity of neocopiamycin A was determined with ddY mice weighing 20 to 21 g. […]"}, "[3]": {"assay": "Solubility", "assay_type": "physicochemical", "description": "as §1, with “reagents.” for “reagents. It also gives pinkish coloration with conc. sulfuric acid, which subsequently turned brown with time. • (8) Ultra violet absorption spectrum: As shown in Fig. 1 of the accompanying drawings. λ^MeOHmax 205 nm (log ε 4.2) • (9) Infrared absorption spectrum: As-shown in Fig. 2 of the accompanying drawing. IR (KBr)(cm^-1) : 3380, 2975, 2925, 1715, 1655, 1595, 1455, 1375, 1240, 1140, 1070, 975, 845. • (10) NMR spectrum: As shown in Fig. 3 of the accompanying drawing. • (11) Rf values of TLC: • A purified sample of neocopiamycin A gives only one spot when chromatographed on thin layer chromatography TLC (Silica gel 60, plate F254) in different solvent systems and bioautographed against Candida albicans or absorption of ultraviolet.”"}, "[4]": {"system": "ddY mice", "assay": "Acute toxicity", "assay_type": "in vivo", "conditions": "for dose tolerated by all mice for 14 days without any toxic signs: mouse, in vivo", "description": "Neocopiamycin A has the following physico-chemical properties. • (1) Color and Appearance: neutral, colorless, hygroscopic powder. • (2) Melting point: 134 - 136°C. […] Neocopiamycin A gives negative reactions to biuret, ninhydrin, Molisch, Fehling, ferric chloride, Liebermann-Burchard, 2,4-dinitrophenylhydrazine reagents, but possitive reactions to Dragendorff, platinic iodide and Sakaguchi reagents. It also gives pinkish coloration with conc. sulfuric acid, which subsequently turned brown with time. • (8) Ultra violet absorption spectrum: As shown in Fig. 1 of the accompanying drawings. λ^MeOHmax 205 nm (log ε 4.2) • (9) Infrared absorption spectrum: As-shown in Fig. 2 of the accompanying drawing. IR (KBr)(cm^-1) : 3380, 2975, 2925, 1715, 1655, 1595, 1455, 1375, 1240, 1140, 1070, 975, 845. • (10) NMR spectrum: As shown in Fig. 3 of the accompanying drawing. • (11) Rf values of TLC: • A purified sample of neocopiamycin A gives only one spot when chromatographed on thin layer chromatography TLC (Silica gel 60, plate F254) in different solvent systems and bioautographed against Candida albicans or absorption of ultraviolet. The Rf values and solvent systems employed are summarized in Table 1. [formula] • (12) Chemical structure: • According to spectral data and physicochemical characteristics, the sturcture of neocopiamycin A can be presumed to have the following formula:- [drawing 3] • Neocopiamycin A has the following biological properties. • (13) Antimicrobial Activity • The minimum inhibitory concentration (MIC) of neocopiamycin A against bacteria, yeast and fungi were determined by a serial two-fold agar dilution method. The medium used was Muller-Hilton agar for bacteria, and Sabouraud dextrose agar for yeasts and fungi. The antibiotic was dissolved in a small amount of ethanol and diluted with sterilized water to give final agar media containing less than one percent of the organic solvent, which was not a harmful concentration against the organisms tested. The MICs were determined after incubation for 24 hours or 4 days at 37^*C for bacteria, and after incubation 24 hours to 7 days at 37°C for yeasts and fungi, depending on the test strain. • Antimicrobial spectrum of neocopiamycin A is given in Tables 2, 3 and 4 below. […] Furthermore, it should be pointed out that neocopiamycin A inhibits the growth of both the filamentous and yeast- like fungi at the concentrations below 10 µg/ml. […] Antifungal spectra of copiamycin were similarly determined for the comparison purpose. [formula] [formula] • (14) Acute Toxicity • Acute toxicity of neocopiamycin A was determined with ddY mice weighing 20 to 21 g. Neocopiamycin A was finely pulverized and suspended in 15% aqueous ethanol solution for intraveneous, intraperitoneal and oral administrations. […]"}, "[5]": {"system": "Gram-negative bacteria", "assay": "MIC by serial two-fold agar dilution method (Muller-Hilton agar)", "assay_type": "cell-based", "conditions": "24 hours or 4 days at 37°C", "description": "as §1, with “reagents.” for “reagents. It also gives pinkish coloration with conc. sulfuric acid, which subsequently turned brown with time. • (8) Ultra violet absorption spectrum: As shown in Fig. 1 of the accompanying drawings. λ^MeOHmax 205 nm (log ε 4.2) • (9) Infrared absorption spectrum: As-shown in Fig. 2 of the accompanying drawing. IR (KBr)(cm^-1) : 3380, 2975, 2925, 1715, 1655, 1595, 1455, 1375, 1240, 1140, 1070, 975, 845. • (10) NMR spectrum: As shown in Fig. 3 of the accompanying drawing. • (11) Rf values of TLC: • A purified sample of neocopiamycin A gives only one spot when chromatographed on thin layer chromatography TLC (Silica gel 60, plate F254) in different solvent systems and bioautographed against Candida albicans or absorption of ultraviolet.”"}, "[6]": {"system": "Gram-positive bacteria", "assay": "MIC by serial two-fold agar dilution method (Muller-Hilton agar)", "assay_type": "cell-based", "conditions": "24 hours or 4 days at 37°C", "description": "as §1, with “reagents.” for “reagents. It also gives pinkish coloration with conc. sulfuric acid, which subsequently turned brown with time. • (8) Ultra violet absorption spectrum: As shown in Fig. 1 of the accompanying drawings. λ^MeOHmax 205 nm (log ε 4.2) • (9) Infrared absorption spectrum: As-shown in Fig. 2 of the accompanying drawing. IR (KBr)(cm^-1) : 3380, 2975, 2925, 1715, 1655, 1595, 1455, 1375, 1240, 1140, 1070, 975, 845. • (10) NMR spectrum: As shown in Fig. 3 of the accompanying drawing. • (11) Rf values of TLC: • A purified sample of neocopiamycin A gives only one spot when chromatographed on thin layer chromatography TLC (Silica gel 60, plate F254) in different solvent systems and bioautographed against Candida albicans or absorption of ultraviolet.”"}}, "data": [{"smiles": "CC(CCC/C=C/CCCN=C(N)N)CC(C)C1OC(=O)C=CC(C)C(O)CC(O)C(C)C(O)CCC(C)C(O)CC2(O)OC(CC(OC(=O)CC(=O)O)CC(O)CC(O)C(C)C(O)/C=C\\C1C)CC(O)C2O", "note": "(stereo not drawn) [neocopiamycin A]", "values": [{"measurement": "concentration inhibiting the growth of Trichomonas vaginalis", "setting": "[1]", "result": 1.56}, {"measurement": "concentrations inhibiting the growth of both the filamentous and yeast-like fungi", "setting": "[2]; Sabouraud dextrose agar, incubation 24 hours to 7 days at 37°C", "result": "below 10 µg/ml"}, {"measurement": "antimicrobial activity compared with copiamycin", "setting": "[2]; Tables 2, 3 and 4, comparison with copiamycin", "result": "much higher antimicrobial activity than copiamycin"}, {"measurement": "antimicrobial activity against fungi, yeasts", "setting": "[2]; wide range of fungi, yeasts, agar dilution", "result": "active"}, {"measurement": "Solubility", "setting": "[3]; acetone, dioxane, chloroform, carbon tetrachloride, ethyl acetate, butyl acetate, petroleum ether, benzene, methyl isobutyl ketone and water", "result": "sparingly soluble or insoluble"}, {"measurement": "Solubility", "setting": "[3]; methanol, ethanol, n-butanol, pyridine, dimethylformamide, glacial acetic acid", "result": "soluble"}, {"measurement": "toxicity compared with copiamycin", "setting": "[4]; comparison with copiamycin", "result": "less toxic than copiamycin"}, {"measurement": "dose tolerated by all mice for 14 days without any toxic signs", "setting": "[4]; ip, 336 h", "result": "more than 1,000 mg/kg"}, {"measurement": "dose tolerated by all mice for 14 days without any toxic signs", "setting": "[4]; iv", "result": 30}, {"measurement": "dose tolerated by all mice for 14 days without any toxic signs", "setting": "[4]; po, 336 h", "result": "more than 1,000 mg/kg"}, {"measurement": "antimicrobial activity against Gram-negative bacteria", "setting": "[5]", "result": "inactive"}, {"measurement": "antimicrobial activity against Gram-positive bacteria", "setting": "[6]", "result": "active"}]}]}
